From patent US20240358727A1, “MICROSCALE THERMOPHORESIS TO EVALUATE CHANNEL LIPID INTERACTIONS AND METHODS OF TREATING NAV CHANNELS RELATED DISEASES” (Northeastern University, priority 2023, published 2024)
Values joined by “and” are separate entries in the source; they are usually repeats but may differ in a detail not shown here. Equal values may be shown once. “Also recorded” adds a separate entry of the source.

Experiments:
[1] = target: T1, Nav1.5-R1644C (Homo sapiens, UniProt Q14524, R1644C); test: MST binding of diC8-PIP2 to GFP-Nav1.5-R1644C in cell lysate; conditions: for affinity (Kd) of Nav1.5-R1644C relative to WT, fold lower: R1644C vs WT
T1 construct: expressed in transfected cells; host or cells: HEK293T
Procedure: (§1) The method utilizes cell lysates obtained from transfected/infected cells that are lysed and incubated with varying concentrations of a water-soluble analogue of PIP2 commercially available as diC8-PI(4,5)P2, in a 384 well plate. Other phosphoinositides such as diC8PI(4)P of diC8PI(5)P can also be utilized. After a brief incubation (10-30 mins) samples are loaded onto capillary chips purchased from the company Nanotemper. Samples are run on the Nanotemper Monolith instrument. This instrument is advertised to detect green fluorescent protein (GFP) tagged proteins, however we have also used TFP (teal FP) tagged proteins. The instrument provides a short infra-red laser pulse which produces a short thermal gradient. Protein that is interacting with the lipid migrates differently through this thermal gradient and its movement is evaluated by the fluorescence of the GFP/TFP tag on the protein. Based on the concentration of the dic8-phosphoinositide, this resolves into a sigmoidal relationship that delivers an apparent affinity (Kd) value. A test ligand can be added to this assay at a known concentration that is at or close to its Kd for the channel. A shift in the channel's affinity for PIP2 in this assay can help indicate whether this test compound is a good drug candidate for further biological experiments.
(§2) Results. Our studies were designed to evaluate PIP2-regulation for Nav1.5 channelopathies from multiple perspectives. Given that there is a lack of structural data to identify where, or how many PIP2 molecules bind to Nav1.5, we performed a docking simulation to identify putative PIP2 binding sites in the open, rat and human Nav1.5 cryoEM structures (PDB: 6UZ3 and 7DTC) (56-58). We observed four potential PIP2 binding sites at the boundary between the inner leaflet of the membrane and the cytoplasm with one at the interface between each voltage sensor and the channel body. In each case, we noted electrostatic and hydrogen bond interactions between the headgroup of PIP2 and multiple disease associated residues. […]

[2] = target: T2, WT-Nav1.5 (Homo sapiens, UniProt Q14524); test: Whole-cell patch-clamp ILATE of wild type Nav1.5 in HEK293T cells with CRY2-5POCRL; format: cell-based; conditions: diC8-PIP2 in pipette
T2 construct: expressed in transfected cells; host or cells: HEK293T
Procedure: (§3) This is opposed when by 200 μM diC8-PIP2 in the pipette. Comparisons are Students t-test, *** P<0.01, ****P0.001 for 4-6 cells per group.
as §2, with “residues. Among these, we elected to perform functional studies on Nav1.5-R1644C, an LQT3 mutant located between the S4 and S5 transmembrane segments of DIV. We expressed wild type Nav1.5 or Nav1.5-R1644C with Nav1β, CIBN-CAAX and CRY2-5POCRL in HEK293T cells and studied ILATE with and without optogenetic dephosphorylation of PIP2. In wild-type Nav1.5, ILATE was 0.25±0.1% of the peak (n=8) whereas in Nav1.5-R1664C, ILATE was 1.2±0.2% of peak (n=8, P<0.01, unpaired t-test comparison to WT).” for “residues.”

[3] = target: T3, free GFP (Aequorea victoria, UniProt P42212); test: MST binding of diC8-PIP2 to free GFP (negative control)
T3 construct: expressed in transfected cells; host or cells: cell lysate
Procedure: as §1
Results. […]

[4] = target: T1, Nav1.5-R1644C; test: Whole-cell patch-clamp ILATE of Nav1.5-R1644C in HEK293T cells with CRY2-5POCRL; format: cell-based
Procedure: as §3
Results. Our studies were designed to evaluate PIP2-regulation for Nav1.5 channelopathies from multiple perspectives. Given that there is a lack of structural data to identify where, or how many PIP2 molecules bind to Nav1.5, we performed a docking simulation to identify putative PIP2 binding sites in the open, rat and human Nav1.5 cryoEM structures (PDB: 6UZ3 and 7DTC) (56-58). We observed four potential PIP2 binding sites at the boundary between the inner leaflet of the membrane and the cytoplasm with one at the interface between each voltage sensor and the channel body. In each case, we noted electrostatic and hydrogen bond interactions between the headgroup of PIP2 and multiple disease associated residues. Among these, we elected to perform functional studies on Nav1.5-R1644C, an LQT3 mutant located between the S4 and S5 transmembrane segments of DIV. We expressed wild type Nav1.5 or Nav1.5-R1644C with Nav1β, CIBN-CAAX and CRY2-5POCRL in HEK293T cells and studied ILATE with and without optogenetic dephosphorylation of PIP2. In wild-type Nav1.5, ILATE was 0.25±0.1% of the peak (n=8) whereas in […], ILATE was 1.2±0.2% of peak (n=8, P<0.01, unpaired t-test comparison to WT). Dephosphorylation of PIP2 elevated ILATE in both channels to ˜4% of the peak but did so more rapidly for Nav1.5-R1644C. Thus, WT Nav1.5 ILATE plateaued after 180±15 s of optogenetic dephosphorylation compared to 86±22 s in Nav1.5-R1644C channels (n=8 for both experiments). […] Next, we used the Monolith Nanotemper system to establish a microscale thermophoresis (MST) approach to measure the binding affinity of PIP2 for Nav1.5 channels. MST measures the mobility of the GFP-tagged protein in response to an IR-laser pulse. Ligand binding alters the motion of the target protein, allowing the user to generate a binding curve and extracting a binding constant (Kd) (FIG. 6A). First, we studied GFP-Nav1.5 expressed in HEK293T cells along with Navβ1.
Next, aimed to test the hypothesis that the relationship of PIP2 with the channel in certain disease-associated variants is altered. We employed a variant of Nav1.5 identified in patients with Long QT Syndrome Type 3, Arg1644→C and assessed it sensitivity to the widely used 5P-OCRL construct. We observed a right shift in the G-V curve and an increase in the ILATE over WT conditions as well as a further increase following blue light induction of PIP2 dephosphorylation. We then used the patch pipette to enrich cells expressing these channels with diC8PI(4,5)P2. We observed that the enhanced ILATE observed under control conditions is mitigated by the inclusion of diC8PIP2 in patch pipette while the shift in the G-V is not rescued by the inclusion of diC8PI(4,5)P2 in the pipette.

Structure (SMILES): CCCCCCCC(=O)OC[C@H](COP(=O)(O)O[C@@H]1[C@H](O)[C@H](O)[C@@H](OP(=O)(O)O)[C@H](OP(=O)(O)O)[C@H]1O)OC(=O)CCCCCCC [diC8-PIP2]
- Kd ([1]; Kd of diC8-PIP2 for Nav1.5-R1644C, GFP-Nav1.5-R1644C, HEK293T lysate): 345 nM and 445 nM
- affinity (Kd) of Nav1.5-R1644C relative to WT, fold lower [1]: ~8 fold and ~10 fold
- affinity (Kd) of Nav1.5-R1644C relative to WT, fold lower ([1]; listed as diC8PI(4,5)P2): almost ten-fold lower
- effect on ILATE increase when PIP2 is dephosphorylated [2]: opposed
- Kd [3]: > 800000 nM
- binding of diC8-PIP2 to free GFP ([3]; MST negative control): does not bind
- effect on elevated baseline ILATE ([4]; 200 μM diC8-PIP2 in pipette): ameliorated; also recorded: abolishing; also recorded: decreased
- effect on elevation in ILATE following optogenetic stimulation of CRY2-5POCRL ([4]; 200 μM diC8-PIP2 in pipette): opposed
- effect on more rapid rise of ILATE on PIP2 dephosphorylation ([4]; 200 μM diC8-PIP2 in pipette): opposed
- effect on elevated baseline ILATE ([4]; 200 μM diC8-PIP2 in pipette, listed as diC8PIP2): mitigated
- ILATE ([4]; 200 μM diC8-PIP2 in pipette, without diC8-PIP2 1.2±0.2): 0.46±0.1 % of peak INa
- effect on right shift in the G-V ([4]; diC8PI(4,5)P2 in pipette): not rescued
